Assay results published in ChEMBL document CHEMBL4421722, “Inhibitors of protein prenyltransferases” (2013).

species on record: Rattus norvegicus; test: Inhibition of rat recombinant geranylgeranyltransferase type I expressed in Escherichia coli assessed as residual enzyme activity for geranylgeranylation of K-Ras4B at 50 uM incubated for 30 mins in presence of [3H]GGPP by scintillation counting assay relative to control

Row | Activity [%] | SMILES
1 | 70 | CCCCCCS[C@@H]1C[C@@H](c2ccc(CC)cc2)N(S(=O)(=O)c2ccc(C)cc2)C[C@H]1C(=O)O
2 | 90.5 | COc1ccc(S[C@@H]2C[C@@H](c3ccc(OC)cc3)N(S(=O)(=O)c3ccccc3)C[C@H]2C(=O)O)cc1
3 | 68.5 | CCc1ccc([C@@H]2C[C@@H](SCC(C)C)[C@H](C(=O)O)CN2S(=O)(=O)c2ccc(C)cc2)cc1
4 | 87.2 | COc1ccc([C@@H]2C[C@@H](SCc3ccc(C(C)(C)C)cc3)[C@H](C(=O)O)CN2S(=O)(=O)c2ccccc2C)cc1
5 | 49.2 | CCCCS[C@@H]1C[C@@H](c2ccc(C)cc2)N(S(=O)(=O)c2ccc(Cl)cc2)C[C@H]1C(=O)O
6 | 70.9 | Cc1ccc(S(=O)(=O)N2[C@@H](c3cccc(Cl)c3)C(C(=O)O)=CC[C@H]2c2ccc(C#N)cc2)cc1
7 | 55 | CCc1ccc([C@@H]2CC=C(C(=O)O)[C@H](c3cccc(F)c3)N2S(=O)(=O)c2ccc(C)cc2)cc1
8 | 69.4 | Cc1ccc([C@@H]2CC=C(C(=O)O)[C@H](c3cccc(Cl)c3)N2S(=O)(=O)c2ccc(C)cc2)cc1
9 | 83.5 | Cc1ccc([C@@H]2C[C@@H](SCC(C)C)[C@H](C(=O)O)CN2S(=O)(=O)c2ccc(C)cc2)cc1
10 | 81.3 | Cc1ccc([C@H]2C(C(=O)O)=CC[C@@H](c3cccc(F)c3)N2S(=O)(=O)c2ccc(C)cc2)cc1
11 | 66 | CCCCS[C@@H]1C[C@@H](c2ccc(OCC)cc2)N(S(=O)(=O)c2ccc(C)cc2)C[C@H]1C(=O)O
12 | 82.4 | Cc1ccc([C@H]2C(C(=O)O)=CC[C@@H](c3cccc(C)c3)N2S(=O)(=O)c2ccc(C)cc2)cc1
13 | 56.8 | Cc1ccc(S(=O)(=O)N2C[C@@H](C(=O)O)[C@H](SCC(C)C)C[C@H]2c2ccccc2F)cc1
14 | 68.1 | Cc1ccc([C@@H]2C[C@@H](SCc3ccc(C(C)(C)C)cc3)[C@H](C(=O)O)CN2S(=O)(=O)c2ccccc2)cc1
15 | 78.8 | CCCS[C@@H]1C[C@@H](c2cccc(Cl)c2)N(S(=O)(=O)c2ccc(C)cc2)C[C@H]1C(=O)O
16 | 72.1 | Cc1ccc(S(=O)(=O)N2C[C@@H](C(=O)O)[C@H](SC3CCCC3)C[C@H]2c2cccc(Br)c2)cc1
17 | 74.3 | CCCCCS[C@@H]1C[C@@H](c2ccc(C)cc2)N(S(=O)(=O)c2ccc(C)cc2)C[C@H]1C(=O)O
18 | 75.6 | Cc1ccc(S(=O)(=O)N2[C@@H](c3cccc(F)c3)C(C(=O)O)=CC[C@H]2c2cccc(C)c2)cc1
19 | 83.9 | CCCCS[C@@H]1C[C@@H](c2cccc(OC)c2)N(S(=O)(=O)c2ccc(C)cc2)C[C@H]1C(=O)O
20 | 84.5 | Cc1ccc([C@@H]2CC=C(C(=O)O)[C@H](c3ccc(Br)cc3)N2S(C)(=O)=O)cc1
21 | 53.1 | C=CCS[C@@H]1C[C@@H](c2ccccc2F)N(S(=O)(=O)c2ccc(C)cc2)C[C@H]1C(=O)O
22 | 54.1 | COc1cccc([C@@H]2CC=C(C(=O)O)[C@H](c3ccc(Cl)cc3)N2S(=O)(=O)c2ccc(C)cc2)c1
23 | 84.2 | Cc1ccc(S(=O)(=O)N2[C@@H](c3ccc(C(C)(C)C)cc3)C(C(=O)O)=CC[C@H]2c2ccccc2F)cc1
24 | 64.5 | COC(=O)c1ccccc1S(=O)(=O)N1[C@@H](c2cccc(F)c2)C(C(=O)O)=CC[C@H]1c1ccc(C)cc1
25 | 91.5 | CCS[C@@H]1C[C@@H](c2ccc3c(c2)OCO3)N(S(=O)(=O)c2ccc(C)cc2)C[C@H]1C(=O)O
26 | 68.1 | Cc1cccc([C@H]2C(C(=O)O)=CC[C@@H](c3ccccc3)N2S(C)(=O)=O)c1
27 | 112 | COc1ccc([C@@H]2C[C@@H](SC3CCCC3)[C@H](C(=O)O)CN2S(=O)(=O)c2ccc(C)cc2)cc1OC
28 | 100 | Cc1ccc([C@@H]2C[C@@H](SC3CCCC3)[C@H](C(=O)O)CN2S(=O)(=O)c2ccccc2)cc1
29 | 80 | COc1ccc([C@@H]2CC=C(C(=O)O)[C@H](c3ccc(Cl)cc3)N2S(=O)(=O)c2ccccc2C)cc1
30 | 68.1 | Cc1ccc([C@@H]2CC=C(C(=O)O)[C@H](c3ccc(Br)cc3)N2S(=O)(=O)c2ccc(C)cc2)cc1

The remaining lines, values behind:

Row | SMILES | Activity [%]
31 | C=CCS[C@@H]1C[C@@H](c2ccc(C)cc2)N(S(=O)(=O)c2ccccc2C)C[C@H]1C(=O)O | 34.5
32 | Cc1ccc([C@@H]2CC=C(C(=O)O)[C@H](c3ccc(C(C)(C)C)cc3)N2S(=O)(=O)c2ccc(Cl)cc2)cc1 | 74.4
33 | CCOc1ccc([C@@H]2CC=C(C(=O)O)[C@H](c3ccc(C)cc3)N2S(=O)(=O)c2ccc(C)cc2)cc1 | 63.2
34 | CCCCCS[C@@H]1C[C@@H](c2ccccc2)N(S(=O)(=O)c2ccc(C)cc2)C[C@H]1C(=O)O | 77.2
35 | COc1ccc([C@@H]2C[C@@H](SC3CCCC3)[C@H](C(=O)O)CN2S(=O)(=O)c2ccc(Cl)cc2)cc1 | 83.1
36 | COc1ccc([C@@H]2CC=C(C(=O)O)[C@H](c3cccc(C)c3)N2S(=O)(=O)c2ccccc2)cc1 | 72.6
37 | Cc1ccc([C@@H]2CC=C(C(=O)O)[C@H](c3cccc(Br)c3)N2S(=O)(=O)c2ccc(C)cc2)cc1 | 75.6
38 | Cc1ccc(S(=O)(=O)N2[C@@H](c3cccc(Cl)c3)C(C(=O)O)=CC[C@H]2c2ccc(C(C)C)cc2)cc1 | 63.1
39 | C=CCS[C@@H]1C[C@@H](c2ccc3c(c2)OCO3)N(S(=O)(=O)c2ccc(C)cc2)C[C@H]1C(=O)O | 76.4
40 | COc1ccc([C@@H]2C[C@@H](SCCC(C)C)[C@H](C(=O)O)CN2S(=O)(=O)c2ccc(C)cc2)cc1 | 90
41 | COC(=O)c1ccccc1S(=O)(=O)N1[C@@H](c2ccc(F)cc2)C(C(=O)O)=CC[C@H]1c1ccc(C)cc1 | 76.9
42 | Cc1ccc(S(=O)(=O)N2C[C@@H](C(=O)O)[C@H](Sc3ccccc3)C[C@H]2c2ccc3c(c2)OCO3)cc1 | 57.4
43 | Cc1ccccc1S(=O)(=O)N1C[C@@H](C(=O)O)[C@H](SC2CCCC2)C[C@H]1c1ccc(Cl)cc1 | 92.1
44 | COc1ccc([C@@H]2C[C@@H](Sc3ccc(C)cc3)[C@H](C(=O)O)CN2S(=O)(=O)c2ccc(Cl)cc2)cc1 | 83.2
45 | Cc1ccc([C@@H]2CC=C(C(=O)O)[C@H](c3cccc(C)c3)N2S(=O)(=O)c2ccc(C)cc2)cc1 | 66.3
46 | CCCCCS[C@@H]1C[C@@H](c2ccc(CC)cc2)N(S(=O)(=O)c2ccc(C)cc2)C[C@H]1C(=O)O | 65.8
47 | COc1ccc(S[C@@H]2C[C@@H](c3ccc(C)cc3)N(S(=O)(=O)c3ccccc3)C[C@H]2C(=O)O)cc1 | 100
48 | C=CCS[C@@H]1C[C@@H](c2ccc(OC)cc2)N(S(=O)(=O)c2ccccc2C)C[C@H]1C(=O)O | 65.1
49 | CCS[C@@H]1C[C@@H](c2ccccc2)N(S(=O)(=O)c2ccc(C)cc2)C[C@H]1C(=O)O | 94.8
50 | CCc1ccc([C@@H]2C[C@@H](Sc3ccc(Cl)cc3)[C@H](C(=O)O)CN2S(=O)(=O)c2ccc(C)cc2)cc1 | 72
51 | CS(=O)(=O)N1[C@@H](c2ccc(Br)cc2)C(C(=O)O)=CC[C@H]1c1ccc(Cl)cc1 | 53.6
52 | Cc1ccc(S(=O)(=O)N2C[C@@H](C(=O)O)[C@H](Sc3ccc(Cl)cc3)C[C@H]2c2ccc3c(c2)OCO3)cc1 | 90.9
53 | Cc1ccc(S(=O)(=O)N2[C@@H](c3ccc(C(C)(C)C)cc3)C(C(=O)O)=CC[C@H]2c2cccc(Br)c2)cc1 | 82.8
54 | COC(=O)c1ccccc1S(=O)(=O)N1[C@@H](c2cccc(Cl)c2)C(C(=O)O)=CC[C@H]1c1ccc(C)cc1 | 56.2
55 | CCCCS[C@@H]1C[C@@H](c2ccc(OC)cc2)N(S(=O)(=O)c2ccc(Cl)cc2)C[C@H]1C(=O)O | 72.9
